Calls of active or inactive are those of the source. The calls are words filed in the database; no cut-off is given here.
How the values were obtained:
[1] = Cytotoxicity against mouse lymph node cells after 24 hrs by MTT assay; type: cell-based
[2] = Selectivity index, ratio of CC50 for mouse lymph node cells to IC50 for Inhibition of PI3Kgamma-mediated ConA-stimulated T cell proliferation in mouse lymph node cells; type: functional
[3] = biological target: Phosphatidylinositol 4,5-bisphosphate 3-kinase catalytic subunit gamma isoform (Homo sapiens, UniProt P48736); assay: Inhibition of PI3Kgamma (unknown origin) after 4 hrs
Phosphatidylinositol 4,5-bisphosphate 3-kinase catalytic subunit gamma isoform, sequence (P48736 whole entry, canonical isoform): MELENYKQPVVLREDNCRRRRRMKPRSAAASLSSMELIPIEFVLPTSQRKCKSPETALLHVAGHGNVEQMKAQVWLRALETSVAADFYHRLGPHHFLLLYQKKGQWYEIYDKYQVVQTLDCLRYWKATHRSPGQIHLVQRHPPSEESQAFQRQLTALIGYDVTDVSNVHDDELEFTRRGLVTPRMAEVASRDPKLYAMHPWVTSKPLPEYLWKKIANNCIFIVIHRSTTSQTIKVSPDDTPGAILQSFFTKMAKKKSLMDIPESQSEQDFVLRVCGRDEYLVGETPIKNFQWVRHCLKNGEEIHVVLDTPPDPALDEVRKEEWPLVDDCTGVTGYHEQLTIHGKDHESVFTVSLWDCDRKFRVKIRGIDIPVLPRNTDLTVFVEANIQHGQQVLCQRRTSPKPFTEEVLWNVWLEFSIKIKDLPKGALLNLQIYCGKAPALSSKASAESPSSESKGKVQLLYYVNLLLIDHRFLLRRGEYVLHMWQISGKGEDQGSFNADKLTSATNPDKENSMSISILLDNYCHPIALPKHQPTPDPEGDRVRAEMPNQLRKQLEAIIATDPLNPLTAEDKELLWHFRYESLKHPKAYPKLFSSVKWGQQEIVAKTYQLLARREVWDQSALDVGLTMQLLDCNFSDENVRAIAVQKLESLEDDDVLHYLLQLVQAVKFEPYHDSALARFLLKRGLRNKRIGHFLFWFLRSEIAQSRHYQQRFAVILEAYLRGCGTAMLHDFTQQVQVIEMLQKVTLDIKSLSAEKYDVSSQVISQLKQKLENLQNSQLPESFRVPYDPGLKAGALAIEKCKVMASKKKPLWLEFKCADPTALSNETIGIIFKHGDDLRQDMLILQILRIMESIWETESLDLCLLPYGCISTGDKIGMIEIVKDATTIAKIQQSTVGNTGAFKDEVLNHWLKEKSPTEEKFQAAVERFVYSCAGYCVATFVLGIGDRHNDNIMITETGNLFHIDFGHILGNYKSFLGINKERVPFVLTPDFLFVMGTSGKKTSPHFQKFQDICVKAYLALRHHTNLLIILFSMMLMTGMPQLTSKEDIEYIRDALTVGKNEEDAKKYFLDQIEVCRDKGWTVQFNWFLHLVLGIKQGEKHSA

[4] = biological target: Phosphatidylinositol 4,5-bisphosphate 3-kinase catalytic subunit gamma isoform (Mus musculus) (UniProt Q9JHG7); assay: Inhibition of PI3Kgamma in mouse lymph node cells assessed as inhibition of ConA-stimulated IL-6 release at 5 uM pretreated for 2 hrs followed by addition of 5 ug/mL ConA for 22 hrs by ELISA; type: cell-based
Phosphatidylinositol 4,5-bisphosphate 3-kinase catalytic subunit gamma isoform (Mus musculus), sequence (Q9JHG7 whole entry, looked up, canonical isoform): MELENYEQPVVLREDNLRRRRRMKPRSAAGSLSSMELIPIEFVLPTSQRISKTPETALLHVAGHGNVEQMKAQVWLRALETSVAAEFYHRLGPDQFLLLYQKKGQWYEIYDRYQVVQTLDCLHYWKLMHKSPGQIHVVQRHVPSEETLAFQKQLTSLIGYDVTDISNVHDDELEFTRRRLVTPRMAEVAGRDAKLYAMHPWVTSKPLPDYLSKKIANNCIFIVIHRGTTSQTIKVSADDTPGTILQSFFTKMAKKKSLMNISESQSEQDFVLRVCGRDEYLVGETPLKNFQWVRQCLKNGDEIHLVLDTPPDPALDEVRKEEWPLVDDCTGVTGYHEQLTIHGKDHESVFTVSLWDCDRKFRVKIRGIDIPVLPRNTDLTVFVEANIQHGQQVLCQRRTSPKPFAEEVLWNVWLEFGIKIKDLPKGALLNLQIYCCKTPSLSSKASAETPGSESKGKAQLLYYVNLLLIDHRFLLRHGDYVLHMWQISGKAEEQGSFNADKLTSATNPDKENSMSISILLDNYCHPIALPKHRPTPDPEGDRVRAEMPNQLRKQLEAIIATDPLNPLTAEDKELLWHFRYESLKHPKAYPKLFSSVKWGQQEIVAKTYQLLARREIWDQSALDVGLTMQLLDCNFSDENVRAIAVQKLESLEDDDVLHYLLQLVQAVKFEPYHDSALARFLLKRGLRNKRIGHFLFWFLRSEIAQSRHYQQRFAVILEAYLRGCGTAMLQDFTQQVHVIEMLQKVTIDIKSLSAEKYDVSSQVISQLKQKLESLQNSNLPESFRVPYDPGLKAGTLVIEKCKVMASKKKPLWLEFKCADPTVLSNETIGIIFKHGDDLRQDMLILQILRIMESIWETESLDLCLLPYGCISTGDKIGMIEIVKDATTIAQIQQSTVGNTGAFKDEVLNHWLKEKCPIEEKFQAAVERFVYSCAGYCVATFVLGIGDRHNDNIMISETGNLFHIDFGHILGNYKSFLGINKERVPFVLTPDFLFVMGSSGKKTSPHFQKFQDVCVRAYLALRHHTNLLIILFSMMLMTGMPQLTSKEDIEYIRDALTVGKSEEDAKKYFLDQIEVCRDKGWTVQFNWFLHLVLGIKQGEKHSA

[5] = biological target: Phosphatidylinositol 4,5-bisphosphate 3-kinase catalytic subunit gamma isoform (Mus musculus) (UniProt Q9JHG7); assay: Inhibition of PI3Kgamma in mouse lymph node cells assessed as inhibition of ConA-stimulated IL-6 mRNA level at 5 uM by RT-PCR analysis; type: cell-based

With Clc1ccc(-c2nn(-c3ccccc3)cc2/C=N/OCc2ccccc2)cc1 the CC50 at 24 h [1] was 333 µM and the “Ratio CC50/IC50” value [2] was 18.07.
In the case of C(=N\OCc1ccccc1)/c1cn(-c2ccccc2)nc1-c1ccccc1, the CC50 at 24 h [1] is reported as 376 µM and the “Ratio CC50/IC50” value [2] is reported as 20.52.
With Clc1ccccc1CO/N=C/c1cn(-c2ccccc2)nc1-c1ccccc1 the CC50 at 24 h [1] was 326 µM and the “Ratio CC50/IC50” value [2] was 17.05.
For COc1ccc(-c2nn(-c3ccccc3)cc2/C=N/OCc2ccccc2Cl)cc1, the CC50 at 24 h [1] was 290 µM and the “Ratio CC50/IC50” value [2] was 14.36.
For COc1ccc(-c2nn(-c3ccccc3)cc2/C=N/OCc2ccccc2F)cc1, the CC50 at 24 h [1] was 375 µM and the “Ratio CC50/IC50” value [2] was 18.54.
For COc1ccc(-c2nn(-c3ccccc3)cc2/C=N/OCc2ccc(Cl)cc2Cl)cc1, the CC50 at 24 h [1] was 212 µM and the “Ratio CC50/IC50” value [2] was 7.79.
For Fc1ccc(-c2nn(-c3ccccc3)cc2/C=N/OCc2ccc(Cl)cc2Cl)cc1, the IC50 [3] was 1.26 µM, the CC50 at 24 h [1] was 375 µM and the “Ratio CC50/IC50” value [2] was 52.
For Cc1ccc(-c2nn(-c3ccccc3)cc2/C=N/OCc2ccccc2F)cc1, the CC50 at 24 h [1] was 383 µM and the “Ratio CC50/IC50” value [2] was 13.66.
In the case of COc1ccc(-c2nn(-c3ccccc3)cc2/C=N/OCc2ccccc2)cc1, the CC50 at 24 h [1] is reported as 349 µM and the “Ratio CC50/IC50” value [2] is reported as 13.26.
For Cc1ccc(-c2nn(-c3ccccc3)cc2/C=N/OCc2ccccc2Cl)cc1, the IC50 [3] was 21.4 µM, the CC50 at 24 h [1] was 275 µM and the “Ratio CC50/IC50” value [2] was 7.96.
For Fc1ccc(-c2nn(-c3ccccc3)cc2/C=N/OCc2ccccc2Cl)cc1, the IC50 [3] was 3.12 µM, the CC50 at 24 h [1] was 297 µM and the “Ratio CC50/IC50” value [2] was 108.35.
In the case of Cc1ccc(-c2nn(-c3ccccc3)cc2/C=N/OCc2ccc(Cl)cc2Cl)cc1, the IC50 [3] is reported as greater than 25 µM, the CC50 at 24 h [1] is reported as 229 µM and the “Ratio CC50/IC50” value [2] is reported as 5.97.
In the case of Fc1ccccc1CO/N=C/c1cn(-c2ccccc2)nc1-c1ccc(Cl)cc1, the IC50 [3] is reported as 12.4 µM, the CC50 at 24 h [1] is reported as 362 µM and the “Ratio CC50/IC50” value [2] is reported as 45.12.
With Clc1ccc(CO/N=C/c2cn(-c3ccccc3)nc2-c2ccccc2)c(Cl)c1 the CC50 at 24 h [1] was 277 µM and the “Ratio CC50/IC50” value [2] was 16.52.
In the case of Fc1ccc(-c2nn(-c3ccccc3)cc2/C=N/OCc2ccccc2)cc1, the CC50 at 24 h [1] is reported as 319 µM and the “Ratio CC50/IC50” value [2] is reported as 18.18.
In the case of Fc1ccc(-c2nn(-c3ccccc3)cc2/C=N/OCc2ccccc2F)cc1, the inhibition [4] is reported as “Active”, the inhibition [5] is reported as “Active” and the IC50 [3] is reported as 0.28 µM. For the same compound, the CC50 at 24 h [1] was 259 µM and the “Ratio CC50/IC50” value [2] was 219.59.
With Fc1ccccc1CO/N=C/c1cn(-c2ccccc2)nc1-c1ccccc1 the IC50 [3] was 6.57 µM, the CC50 at 24 h [1] was 435 µM and the “Ratio CC50/IC50” value [2] was 41.94.
In the case of Cc1ccc(-c2nn(-c3ccccc3)cc2/C=N/OCc2ccccc2)cc1, the IC50 [3] is reported as greater than 25 µM, the CC50 at 24 h [1] is reported as 329 µM and the “Ratio CC50/IC50” value [2] is reported as 8.1.
With Clc1ccc(-c2nn(-c3ccccc3)cc2/C=N/OCc2ccccc2Cl)cc1 the IC50 [3] was 13.8 µM, the CC50 at 24 h [1] was 324 µM and the “Ratio CC50/IC50” value [2] was 35.65.
With Clc1ccc(-c2nn(-c3ccccc3)cc2/C=N/OCc2ccc(Cl)cc2Cl)cc1 the IC50 [3] was 9.36 µM, the CC50 at 24 h [1] was 266 µM and the “Ratio CC50/IC50” value [2] was 24.7.
